Assay results from ChEMBL document CHEMBL5678795 (Eur J Pharmacol, 1999).
Peptide text beside a SMILES is read from it.

Assays:
[1] = target: T1, Endothelin receptor type B (Homo sapiens, UniProt P24530); test: Binding affinity to ETB receptor (unknown origin) assessed as inhibition constant
T1 sequence (P24530 whole entry): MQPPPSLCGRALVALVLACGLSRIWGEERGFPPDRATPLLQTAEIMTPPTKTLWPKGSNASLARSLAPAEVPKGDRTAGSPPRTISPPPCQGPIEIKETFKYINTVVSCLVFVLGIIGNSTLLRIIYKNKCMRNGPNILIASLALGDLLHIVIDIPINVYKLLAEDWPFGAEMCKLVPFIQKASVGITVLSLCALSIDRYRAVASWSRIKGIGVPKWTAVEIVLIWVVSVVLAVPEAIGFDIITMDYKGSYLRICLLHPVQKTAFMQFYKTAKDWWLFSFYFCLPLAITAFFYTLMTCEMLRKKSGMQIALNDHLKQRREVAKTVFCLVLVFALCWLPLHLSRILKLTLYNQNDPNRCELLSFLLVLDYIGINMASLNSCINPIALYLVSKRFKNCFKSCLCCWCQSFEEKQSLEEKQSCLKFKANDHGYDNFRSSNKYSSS

Endothelin-1 receptor [2] = target: T2, Endothelin-1 receptor (Homo sapiens, UniProt P25101); test: Binding affinity to ETA receptor (unknown origin) assessed as inhibition constant
T2 sequence (P25101 whole entry): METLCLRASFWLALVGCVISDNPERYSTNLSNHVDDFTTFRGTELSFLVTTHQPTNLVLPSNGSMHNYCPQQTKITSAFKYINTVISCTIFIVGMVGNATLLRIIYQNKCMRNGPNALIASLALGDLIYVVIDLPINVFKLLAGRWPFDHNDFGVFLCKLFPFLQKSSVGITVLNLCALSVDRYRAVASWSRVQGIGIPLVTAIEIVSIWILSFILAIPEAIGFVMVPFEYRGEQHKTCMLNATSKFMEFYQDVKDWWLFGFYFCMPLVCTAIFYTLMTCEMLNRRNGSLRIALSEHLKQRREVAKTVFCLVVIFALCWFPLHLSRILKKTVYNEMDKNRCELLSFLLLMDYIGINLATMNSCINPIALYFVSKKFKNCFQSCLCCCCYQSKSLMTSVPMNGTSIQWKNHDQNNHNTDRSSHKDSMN

[3] = target: Endothelin receptor type B (Oryctolagus cuniculus, UniProt Q9N0W7); test: Agonist activity to ETB receptor in rabbit pulmonary artery assessed as induction of vessel ring contraction; format: functional, tissue-based
Endothelin receptor type B (Oryctolagus cuniculus, UniProt Q9N0W7), sequence (Q9N0W7 whole entry): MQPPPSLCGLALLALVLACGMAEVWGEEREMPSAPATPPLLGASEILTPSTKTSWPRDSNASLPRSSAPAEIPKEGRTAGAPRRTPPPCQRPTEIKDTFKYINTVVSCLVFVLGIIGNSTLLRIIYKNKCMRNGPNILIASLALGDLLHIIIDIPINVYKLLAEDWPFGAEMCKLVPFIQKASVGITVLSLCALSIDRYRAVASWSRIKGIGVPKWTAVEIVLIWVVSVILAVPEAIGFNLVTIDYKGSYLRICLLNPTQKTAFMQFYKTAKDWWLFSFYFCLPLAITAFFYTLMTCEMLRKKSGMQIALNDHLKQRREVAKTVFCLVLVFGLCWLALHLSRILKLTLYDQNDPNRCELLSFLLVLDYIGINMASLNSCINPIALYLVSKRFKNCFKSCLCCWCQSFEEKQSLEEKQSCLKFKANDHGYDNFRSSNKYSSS

[4] = Selectivity ratio of IC50 for human ETA receptor stably expressed in CHO cells Membrane to IC50 human ETB receptor stably expressed in CHO cells Membrane; details: condition cardiovascular disease; condition vascular disease
Endothelin-1 receptor [5] = target: T2, Endothelin-1 receptor; test: Displacement of [125I]endhothelin-1 from human ETA receptor stably expressed in CHO cells Membrane assessed as inhibition constant at 25 degC incubated for 4 hrs by saturation binding assay; format: cell membranes
[6] = target: T1, Endothelin receptor type B; test: Displacement of [125I]endhothelin-3 from human ETB receptor stably expressed in CHO cells Membrane assessed as inhibition constant at 25 degC incubated for 4 hrs by saturation binding assay; format: cell membranes
[7] = Displacement of [125I]ET-1 from human ETB receptor expressed in green monkey COS7 cells Membrane assessed as inhibition constant incubated for 16 to 18 hrs by gamma counter analysis; format: cell membranes

Question: For CC(C)C[C@H](NC(=O)N1CCCCCC1)C(=O)N[C@H](Cc1cn(C)c2ccccc12)C(=O)N[C@H](Cc1ccccn1)C(=O)O, which Ki [1] is on record?
Answer: 7300 nM

Question: With CC(C)C[C@@H]1NC(=O)[C@@H](c2cccs2)NC(=O)[C@H](CC(=O)O)NC(=O)[C@H](CC(=O)N2CCN(c3ccccc3)CC2)NC(=O)[C@@H](CC(=O)O)NC(=O)[C@@H](Cc2c[nH]c3ccccc23)NC1=O (HELM PEPTIDE1{D.D.[O=C([C@H](N[*:1])c1cccs1)[*:2]].L.[dW].[dD]}|CHEM1{[c1ccc(N2CCN([*:1])CC2)cc1]}$PEPTIDE1,CHEM1,1:R3-1:R1|PEPTIDE1,PEPTIDE1,1:R1-6:R2$$$V2.0) [listing 1 of 2 here] as the compound, how does the Ki (Endothelin-1 receptor [2]) read?
Answer: 1.3 nM

Question: What about the Ki [1] of the same compound?
Answer: 590 nM

Question: With CC[C@H](C)[C@H](NC(=O)[C@@H](NC(=O)[C@H](CC(=O)O)NC(=O)[C@H](CCC(N)=O)NC(=O)[C@H](Cc1cnc[nH]1)NC(=O)[C@@H]1CSSC[C@H](N)C(=O)N[C@@H]([C@@H](C)O)C(=O)N[C@H]2CSSC[C@H](NC(=O)[C@H](CCC(=O)O)NC(=O)[C@H](CCC(=O)O)NC(=O)[C@H](CC(=O)O)NC(=O)[C@H]([C@@H](C)O)NC(=O)[C@H](CCSC)NC(=O)[C@H](CC(=O)O)NC(=O)[C@H](CC(N)=O)NC2=O)C(=O)N[C@@H](CC(C)C)C(=O)N[C@@H](CC(N)=O)C(=O)N[C@@H](Cc2ccccc2)C(=O)N1)C(C)C)C(=O)N[C@@H](Cc1c[nH]c2ccccc12)C(=O)O as the compound, how does the EC50 [3] read?
Answer: 1.57 nM

Question: Which “Ratio IC50” value [4] does the source give for COc1ccccc1Oc1c(NS(=O)(=O)c2ccc(C)cn2)nc(-c2ccnc(-c3nnn[nH]3)c2)nc1OCCO [CLAZOSENTAN] here?
Answer: >1000

Question: And the Ki [1]?
Answer: > 130 nM

Question: For CCCc1cc(C(=O)O)ccc1OC(C(=O)NS(=O)(=O)c1ccc(C(C)C)cc1)c1ccc2c(c1)OCO2 [L-754142], which Ki (Endothelin-1 receptor [5]) is on record?
Answer: 33.6 nM

Question: And the Ki [6]?
Answer: 1420 nM

Question: And the “Ratio IC50” value [4]?
Answer: 42

Question: Which “Ratio IC50” value [4] does the source give for CCCOc1ccc2c(c1)[C@@H](c1ccc(OC)cc1OCC(=O)O)[C@H](C(=O)O)[C@H]2c1ccc2c(c1)OCO2 [SB-209670] here?
Answer: 90

Question: With CC(C)C[C@@H]1NC(=O)[C@@H](c2cccs2)NC(=O)[C@H](CC(=O)O)NC(=O)[C@H](CC(=O)N2CCN(c3ccccc3)CC2)NC(=O)[C@@H](CC(=O)O)NC(=O)[C@@H](Cc2c[nH]c3ccccc23)NC1=O (HELM PEPTIDE1{D.D.[O=C([C@H](N[*:1])c1cccs1)[*:2]].L.[dW].[dD]}|CHEM1{[c1ccc(N2CCN([*:1])CC2)cc1]}$PEPTIDE1,CHEM1,1:R3-1:R1|PEPTIDE1,PEPTIDE1,1:R1-6:R2$$$V2.0) [listing 2 of 2 here] as the compound, how does the “Ratio IC50” value [4] read?
Answer: 454

Question: For COc1cc(OC)nc(O[C@@H](C(=O)O)C(OC)(c2ccccc2)c2ccccc2)n1, which “Ratio IC50” value [4] is on record?
Answer: 160

Question: What about the Ki (Endothelin-1 receptor [2]) of the same compound?
Answer: 6 nM

Question: What about the Ki [1] of the same compound?
Answer: 960 nM

Question: Which results are given for Cc1cc2c(cc1CC(=O)c1sccc1S(=O)(=O)Nc1onc(C)c1Cl)OCO2 [SITAXENTAN]?
Answer: Ratio IC50 [4]: >10000; Ki [7]: > 4300 nM

Question: With CCCOc1ccc2c(c1)[C@@H](c1ccc(OC)cc1OCCO)[C@H](C(=O)O)[C@H]2c1ccc2c(c1)OCO2 as the compound, how does the “Ratio IC50” value [4] read?
Answer: 1000
